Drawing on PubChem BioAssay AID1259411 (Chemical Carcinogenesis Research Information System (CCRIS), 2018), this text covers carcinogen call for one compound.

This series has as its system rodent carcinogenicity bioassays, tumor incidence. The experiment in a line: CCRIS carcinogenicity studies. The procedure, abridged:
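Archive of carcinogenicity, mutagenicity, tumor promotion and tumor inhibition results drawn from journals, NCI reports and other sources, expert-reviewed; covers 1985-2011 and is no longer updated.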

Calls of active or inactive are those of the source. How the calls were made is not given here.

Consider `c1ccc2c(c1)cc1ccc3cccc4ccc2c1c34`, for which the carcinogen call (Species: MOUSE, Strain/Sex: SWISS/FEMALE, Route: DERMAL, Dose: 0, 2.2, 6.6, 20 NMOL IN 50 µL ACETONE 2/WK FOR 48 WK (STUDY DURATION: 61 WK), Dose: 0, 2.2, 6.6, 20 NMOL IN 50 µL ACETONE 2/WK FOR 48 WK (STUDY DURATION: 61 WK), Tumor Site: Type of Lesion: SKIN: PAPILLOMA, SKIN: SQUAMOUS CELL CARCINOMA) is “active; positive”; the carcinogen call (Species: MOUSE, Strain/Sex: SWISS/FEMALE, Route: DERMAL, Dose: 0, 22.2, 66.6, 200 NMOL IN 50 µL ACETONE 2/WK FOR 48 WK (STUDY DURATION: 61 WK), Dose: 0, 22.2, 66.6, 200 NMOL IN 50 µL ACETONE 2/WK FOR 48 WK (STUDY DURATION: 61 WK), Tumor Site: Type of Lesion: SKIN: SQUAMOUS CELL CARCINOMA) is “active; positive”; the carcinogen call (Species: MOUSE, Strain/Sex: SWISS/FEMALE, Route: DERMAL, Dose: 0.01-0.5%, 3/WK, Tumor Site: Type of Lesion: INTEGUMENTARY SYSTEM (SKIN): CARCINOMA, PAPILLOMA) is “active; positive”; the carcinogen call (Species: MOUSE, Strain/Sex: SWISS/FEMALE, Route: DERMAL, Dose: 0.1-9 UG, 3/WK FOR < 700 D, Tumor Site: Type of Lesion: INTEGUMENTARY SYSTEM (SKIN)) is “active; positive”; the carcinogen call (Species: MOUSE, Strain/Sex: WILDTYPE/MALE, Route: GAVAGE, Dose: 0, 13, 39 MG/KG BW IN 0.1 ML SOY OIL 3/WK FOR 13 WK (STUDY DURATION: 291 D), Dose: 0, 13, 39 MG/KG BW IN 0.1 ML SOY OIL 3/WK FOR 13 WK (STUDY DURATION: 291 D), Tumor Site: Type of Lesion: LYMPHATIC SYSTEM: LYMPHOMA, FORESTOMACH: TUMOR) was “active; positive”; the carcinogen call (Species: Mouse, Strain/Sex: 129 x MF1 Gstp-null (14-15 males and females), Route: Intraperitoneal, Dose: 200 mg/kg, once, study duration 5 mo, Tumor Site: Type of Lesion: Lung: adenoma (incidence 71% vs 27% in controls, multiplicity 3.0 vs 0.3 in controls)) was “inactive; negative”. For the same compound, the carcinogen call was “inactive; negative” (Species: Mouse, Strain/Sex: 129 x MF1 wild type (14-16 males and females), Route: Intraperitoneal, Dose: 200 mg/kg, once, study duration 5 mo, Tumor Site: Type of Lesion: Lung: adenoma (incidence 29% vs 25% in controls, multiplicity 0.4 vs 0.3 in controls)); “active; positive” (Species: RABBIT, Route: DERMAL, Dose: 0.001-0.5%, 5/WK, Tumor Site: Type of Lesion: INTEGUMENTARY SYSTEM (SKIN)); “active; positive” (Species: RABBIT, Route: DERMAL, Tumor Site: Type of Lesion: INTEGUMENTARY SYSTEM (SKIN): PAPILLOMA, CARCINOMA); “active; positive” (Species: RAT, Route: INTRATRACHEAL, Dose: 0.0005-2.5 MG, 1/MO FOR 10 MO, OBSERVED 2 YR, Tumor Site: Type of Lesion: LUNG); “active; positive” (Species: RAT, Route: SUBCUTANEOUS, Dose: 0.05, 0.1, 0.5, 1.0 MG, SINGLE DOSE, Tumor Site: Type of Lesion: INJECTION SITE); “active; positive” (Species: RAT, Route: SUBCUTANEOUS, Tumor Site: Type of Lesion: INJECTION SITE). Moreover, the carcinogen call (Species: RAT, Strain/Sex: F344/MALE, Route: LUNG IMPLANT, Dose: 0, 50, 100, 200 UG IN BEESWAX/TRICAPRYLIN INTO LEFT LUNG ONCE (STUDY DURATION: 100 WK), Dose: 0, 50, 100, 200 UG IN BEESWAX/TRICAPRYLIN INTO LEFT LUNG ONCE (STUDY DURATION: 100 WK), Tumor Site: Type of Lesion: LUNG: SQUAMOUS CELL CARCINOMA) is “active; positive”; the carcinogen call (Species: RAT, Strain/Sex: F344/MALE, Route: PULMONARY IMPLANT, Dose: 0, 50, 100, 200 UG IN 50 µL BEESWAX/TRICAPRYLIN IMPLANTED FOR UP TO 100 WK (STUDY DURATION: 100 WK), Dose: 0, 50, 100, 200 UG IN 50 µL BEESWAX/TRICAPRYLIN IMPLANTED FOR UP TO 100 WK (STUDY DURATION: 100 WK), Tumor Site: Type of Lesion: LUNG: TUMOR) was “active; positive”; the carcinogen call (Species: RAT, Strain/Sex: F344/MALE, Route: SUBCUTANEOUS IMPLANT, Dose: 0, 8, 40, 200, 1000 UG IN 50 µL BEESWAX/TRICAPRYLIN IMPLANTED FOR UP TO 45 WK (STUDY DURATION: 45 WK), Dose: 0, 8, 40, 200, 1000 UG IN 50 µL BEESWAX/TRICAPRYLIN IMPLANTED FOR UP TO 45 WK (STUDY DURATION: 45 WK), Tumor Site: Type of Lesion: IMPLANT SITE: TUMOR) is “active; positive”; the carcinogen call (Species: RAT, Strain/Sex: OSBORNE-MENDEL/FEMALE, Route: INTRAPULMONARY IMPLANT, Dose: 0, 0.03, 0.1, 0.3 MG IN BEESWAX AND TRIOCTANOIN IMPLANTED IN LUNG (STUDY DURATION: 141 WK), Dose: 0, 0.03, 0.1, 0.3 MG IN BEESWAX AND TRIOCTANOIN IMPLANTED IN LUNG (STUDY DURATION: 141 WK), Tumor Site: Type of Lesion: LUNG: CARCINOMA) is “active; positive”; the carcinogen call (Species: RAT, Strain/Sex: OSBORNE-MENDEL/FEMALE, Route: LUNG IMPLANT, Dose: 0, 0.1, 0.3, 1.0 MG IN BEESWAX/TRIOCTANOIN (STUDY DURATION: LIFETIME), Dose: 0, 0.1, 0.3, 1.0 MG IN BEESWAX/TRIOCTANOIN (STUDY DURATION: LIFETIME), Tumor Site: Type of Lesion: LUNG: EPIDERMOID CARCINOMA, PLEOMORPHIC SARCOMA) was “active; positive”; the carcinogen call (Species: RAT, Strain/Sex: SPRAGUE-DAWLEY/FEMALE, Route: INJECTION, Dose: 0, 0.25, 1 UMOL PER MAMMARY GLAND (STUDY DURATION: 24 WK), Dose: 0, 0.25, 1 UMOL PER MAMMARY GLAND (STUDY DURATION: 24 WK), Tumor Site: Type of Lesion: MAMMARY GLAND: TUMOR) was “active; positive”. In addition, the carcinogen call (Species: RAT, Strain/Sex: SPRAGUE-DAWLEY/FEMALE, Route: INTRAVENOUS, Dose: 39 MG/KG, SINGLE DOSE, Tumor Site: Type of Lesion: MAMMARY GLAND: CARCINOMA) is “active; positive”; the carcinogen call (Species: RAT, Strain/Sex: SPRAGUE-DAWLEY/FEMALE, Route: INTRAVENOUS, Tumor Site: Type of Lesion: MAMMARY GLAND: CARCINOMA) was “active; positive”; the carcinogen call (Species: RAT, Strain/Sex: STRAIN-CD/FEMALE, Route: GAVAGE, Dose: 0, 50 UMOL IN 0.5 ML TRIOCTANOIN 1/WK FOR 8 WK (STUDY DURATION: 49 WK), Tumor Site: Type of Lesion: MAMMARY GLAND: FIBROADENOMA, DESMOPLASTIC ADENOMA, ADENOCARCINOMA) was “active; positive”.
